Reference: US10294202B2, “Pyrrolidinones as herbicides” (FMC Corporation, priority 2013, dated 2019)

What was measured:
corn = test: Test A pre-/postemergence herbicide test; type: in vivo, Zea mays; conditions: Postemergence
Procedure, shortened: (§1)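 Planted in loam–sand blend; treated the same day preemergence by directed soil spray, while separately grown plants at one- to two-leaf stage got postemergence spray. Compared visually with untreated controls after approximately 10 days; 100 means complete control.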

barnyardgrass [1] = test: Test A pre-/postemergence herbicide test; type: in vivo, Echinochloa crus-galli
Procedure, shortened: as §1

ragweed = test: Test A pre-/postemergence herbicide test; type: in vivo, Ambrosia elatior
Procedure, shortened: as §1

barnyardgrass [2] = test: Test B flooded paddy test; type: in vivo, Echinochloa crus-galli; conditions: 500 g ai/ha, Flood; scale of 0 to 100 where 0 is no effect and 100 is complete control
Procedure, shortened: (§2)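 Plants were grown to the 2-leaf stage, then pots were flooded to 3 cm above the soil and compound was applied directly into the paddy water, with that depth held throughout. After 13 to 15 days in a greenhouse, injury was rated visually against untreated controls on a 0 to 100 scale (100 = complete control).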

ducksalad = test: Test B flooded paddy test; type: in vivo, Heteranthera limosa; conditions: 500 g ai/ha, Flood; scale of 0 to 100 where 0 is no effect and 100 is complete control
Procedure, shortened: as §2

giant foxtail = test: Test A pre-/postemergence herbicide test; type: in vivo, Setaria faberii
Procedure, shortened: as §1

pigweed = test: Test A pre-/postemergence herbicide test; type: in vivo, Amaranthus retroflexus
Procedure, shortened: as §1

galium = test: Test A postemergence herbicide test; type: in vivo, Galium aparine
Procedure, shortened: (§3)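 Young potted plants in a loam–sand mix, one- to two-leaf stage and 2–10 cm tall, receive the test chemical postemergence and stay in a greenhouse for approximately 10 days. Injury is then judged by eye against untreated plants, scored 0 (none) to 100 (complete control).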

wheat = test: Test A pre-/postemergence herbicide test; type: in vivo, Triticum aestivum; conditions: Postemergence
Procedure, shortened: as §1

ryegrass, Italian = test: Test A pre-/postemergence herbicide test; type: in vivo, Lolium multiflorum
Procedure, shortened: as §1

sedge, umbrella = test: Test B flooded paddy test; type: in vivo, Cyperus difformis; conditions: 500 g ai/ha, Flood; scale of 0 to 100 where 0 is no effect and 100 is complete control
Procedure, shortened: as §2

blackgrass = test: Test A postemergence herbicide test; type: in vivo, Alopecurus myosuroides
Procedure, shortened: as §3

rice = test: Test B flooded paddy test; type: in vivo, Oryza sativa; conditions: 500 g ai/ha, Flood; scale of 0 to 100 where 0 is no effect and 100 is complete control
Procedure, shortened: as §2

kochia = test: Test A pre-/postemergence herbicide test; type: in vivo, Kochia scoparia
Procedure, shortened: as §1

[3] = 125 g ai/ha, 0 to 100 scale, 0 no effect, 100 complete control
[4] = 500 g ai/ha, 0 to 100 scale (0 no effect, 100 complete control)
[5] = 125 g ai/ha, visual rating, 0 to 100 scale, 0 no effect, 100 complete control, approximately 10 days, preemergence
[6] = Postemergence, 125 g ai/ha, 0 to 100 scale, 0 no effect, 100 complete control
[7] = Postemergence, 500 g ai/ha, 0 to 100 scale (0 no effect, 100 complete control)
[8] = preemergence, 500 g ai/ha, 0 to 100 scale (0 no effect, 100 complete control)
[9] = preemergence, 500 g ai/ha, 0 to 100 scale
[10] = 125 g ai/ha, 0 to 100 scale, 0 is no effect, 100 is complete control
[11] = Postemergence, 125 g ai/ha, 0 to 100 scale, 0 is no effect, 100 is complete control
[12] = Preemergence, 125 g ai/ha, 0 to 100 scale where 0 is no effect and 100 is complete control
[13] = preemergence, 500 g ai/ha, 0 to 100 scale, 0 is no effect and 100 is complete control
[14] = Postemergence, 125 g ai/ha, visual rating on 0 to 100 scale (0 no effect, 100 complete control), approx. 10 days

O=C1NCC(c2cccc(OC(F)(F)C(F)F)c2)C1C(=O)Nc1ccccc1F (racemic) [Compound 121]
Plant response rating, Corn (corn; [3]): 50 | Plant response rating, Corn (corn; [4]): 70 | Plant response rating, Barnyardgrass (barnyardgrass [1]; [5]): 80 | Plant response rating, Barnyardgrass (barnyardgrass [1]; [6]): 70 | Plant response rating, Barnyardgrass (barnyardgrass [1]; [7]): 80 | Plant response rating, Barnyardgrass (barnyardgrass [1]; [8]): 90 | Plant response rating, Ragweed (ragweed; [5]): 70 | Plant response rating, Ragweed (ragweed; [6]): 0 | Ragweed plant response rating (0 to 100 scale, 0 is no effect, 100 is complete control) (ragweed; Postemergence, 500 g ai/ha): 30 | Plant response rating, Ragweed (ragweed; [9]): 70 | Plant response rating, Barnyardgrass (barnyardgrass [2]): 70 | Plant response rating, Ducksalad (ducksalad): 100 | Plant response rating, Foxtail, Giant (giant foxtail; [5]): 90 | Plant response rating, Foxtail, Giant (giant foxtail; [6]): 80 | Foxtail, Giant plant response rating (0 to 100 scale, 0 is no effect, 100 is complete control) (giant foxtail; Postemergence, 500 g ai/ha): 90 | Plant response rating, Foxtail, Giant (giant foxtail; [9]): 90 | Plant response rating, Pigweed (pigweed; [5]): 50 | Plant response rating, Pigweed (pigweed; [6]): 0 | Pigweed plant response rating (0 to 100 scale, 0 is no effect, 100 is complete control) (pigweed; Postemergence, 500 g ai/ha): 0 | Plant response rating, Pigweed (pigweed; [9]): 70 | Plant response rating, Galium (galium; [3]): 60 | Galium plant response rating (0 to 100 scale, 0 is no effect, 100 is complete control) (galium; 500 g ai/ha): 70 | Plant response rating, Wheat (wheat; [3]): 50 | Wheat plant response rating (0 to 100 scale, 0 is no effect, 100 is complete control) (wheat; 500 g ai/ha): 60 | Plant response rating, Ryegrass, Italian (ryegrass, Italian; [5]): 0 | Plant response rating, Ryegrass, Italian (ryegrass, Italian; [6]): 40 | Ryegrass, Italian plant response rating (0 to 100 scale, 0 is no effect, 100 is complete control) (ryegrass, Italian; Postemergence, 500 g ai/ha): 50 | Plant response rating, Ryegrass, Italian (ryegrass, Italian; [9]): 0 | Plant response rating, Sedge, Umbrella (sedge, umbrella): 0 | Plant response rating, Blackgrass (blackgrass; [3]): 60 | Plant response rating, Blackgrass (blackgrass; [4]): 70 | Plant response rating, Rice (rice): 35 | Plant response rating, Kochia (kochia; [5]): 60 | Plant response rating, Kochia (kochia; [6]): 50 | Kochia plant response rating (0 to 100 scale, 0 is no effect, 100 is complete control) (kochia; Postemergence, 500 g ai/ha): 60 | Plant response rating, Kochia (kochia; [9]): 70

O=C1NCC(c2cc3ccccc3o2)C1C(=O)Nc1cccc(F)c1F (stereo not drawn) [Compound 282]
Plant response rating, Corn (corn; [10]): 0 | Plant response rating, Corn (corn; [4]): 0 | Plant response rating, Barnyardgrass (barnyardgrass [1]; [11]): 50 | Plant response rating, Barnyardgrass (barnyardgrass [1]; [7]): 90 | Plant response rating, Barnyardgrass (barnyardgrass [1]; [12]): 60 | Plant response rating, Barnyardgrass (barnyardgrass [1]; [13]): 90 | Plant response rating, Ragweed (ragweed; [14]): 0 | Plant response rating, Ragweed (ragweed; [7]): 0 | Plant response rating, Ragweed (ragweed; [12]): 0 | Plant response rating, Ragweed (ragweed; [13]): 0 | Plant response rating, Barnyardgrass (barnyardgrass [2]): 30 | Plant response rating, Ducksalad (ducksalad): 95 | Plant response rating, Foxtail, Giant (giant foxtail; [11]): 0 | Plant response rating, Foxtail, Giant (giant foxtail; [7]): 30 | Plant response rating, Foxtail, Giant (giant foxtail; [12]): 20 | Plant response rating, Foxtail, Giant (giant foxtail; [13]): 70 | Plant response rating, Pigweed (pigweed; [14]): 0 | Plant response rating, Pigweed (pigweed; [7]): 0 | Plant response rating, Pigweed (pigweed; [12]): 0 | Plant response rating, Pigweed (pigweed; [13]): 0 | Plant response rating, Galium (galium; [10]): 0 | Plant response rating, Galium (galium; [4]): 40 | Plant response rating, Wheat (wheat; 125 g ai/ha, visual rating on 0 to 100 scale (0 no effect, 100 complete control), approx. 10 days): 0 | Plant response rating, Wheat (wheat; [4]): 0 | Plant response rating, Ryegrass, Italian (ryegrass, Italian; [14]): 0 | Plant response rating, Ryegrass, Italian (ryegrass, Italian; [7]): 0 | Plant response rating, Ryegrass, Italian (ryegrass, Italian; [12]): 0 | Plant response rating, Ryegrass, Italian (ryegrass, Italian; [13]): 0 | Plant response rating, Sedge, Umbrella (sedge, umbrella): 30 | Plant response rating, Blackgrass (blackgrass; [10]): 0 | Plant response rating, Blackgrass (blackgrass; [4]): 20 | Plant response rating, Rice (rice): 0 | Plant response rating, Kochia (kochia; [11]): 0 | Plant response rating, Kochia (kochia; [7]): 0 | Plant response rating, Kochia (kochia; [12]): 0 | Plant response rating, Kochia (kochia; [13]): 50

COc1cc(C2CNC(=O)C2C(=O)Nc2ccccc2Cl)ccc1F (racemic) [Compound 133]
Plant response rating, Corn (corn; [3]): 0 | Corn plant response rating (0 to 100 scale, 0 is no effect, 100 is complete control) (corn; 500 g ai/ha): 0 | Plant response rating, Barnyardgrass (barnyardgrass [1]; [5]): 20 | Plant response rating, Barnyardgrass (barnyardgrass [1]; [6]): 30 | Barnyardgrass plant response rating (0 to 100 scale, 0 is no effect, 100 is complete control) (barnyardgrass [1]; Postemergence, 500 g ai/ha): 80 | Plant response rating, Barnyardgrass (barnyardgrass [1]; [8]): 30 | Plant response rating, Ragweed (ragweed; [5]): 0 | Plant response rating, Ragweed (ragweed; [6]): 0 | Ragweed plant response rating (0 to 100 scale, 0 is no effect, 100 is complete control) (ragweed; Postemergence, 500 g ai/ha): 0 | Plant response rating, Ragweed (ragweed; [9]): 0 | Plant response rating, Barnyardgrass (barnyardgrass [2]): 30 | Plant response rating, Ducksalad (ducksalad): 60 | Plant response rating, Foxtail, Giant (giant foxtail; [5]): 30 | Plant response rating, Foxtail, Giant (giant foxtail; [6]): 20 | Foxtail, Giant plant response rating (0 to 100 scale, 0 is no effect, 100 is complete control) (giant foxtail; Postemergence, 500 g ai/ha): 50 | Plant response rating, Foxtail, Giant (giant foxtail; [9]): 90 | Plant response rating, Pigweed (pigweed; [5]): 0 | Plant response rating, Pigweed (pigweed; [6]): 0 | Pigweed plant response rating (0 to 100 scale, 0 is no effect, 100 is complete control) (pigweed; Postemergence, 500 g ai/ha): 0 | Plant response rating, Pigweed (pigweed; [9]): 0 | Plant response rating, Galium (galium; [3]): 0 | Galium plant response rating (0 to 100 scale, 0 is no effect, 100 is complete control) (galium; 500 g ai/ha): 0 | Plant response rating, Wheat (wheat; [3]): 0 | Wheat plant response rating (0 to 100 scale, 0 is no effect, 100 is complete control) (wheat; 500 g ai/ha): 0 | Plant response rating, Ryegrass, Italian (ryegrass, Italian; [5]): 0 | Plant response rating, Ryegrass, Italian (ryegrass, Italian; [6]): 0 | Ryegrass, Italian plant response rating (0 to 100 scale, 0 is no effect, 100 is complete control) (ryegrass, Italian; Postemergence, 500 g ai/ha): 0 | Plant response rating, Ryegrass, Italian (ryegrass, Italian; [9]): 0 | Plant response rating, Sedge, Umbrella (sedge, umbrella): 0 | Plant response rating, Blackgrass (blackgrass; [3]): 0 | Blackgrass plant response rating (0 to 100 scale, 0 is no effect, 100 is complete control) (blackgrass; 500 g ai/ha): 0 | Plant response rating, Rice (rice): 0 | Plant response rating, Kochia (kochia; [5]): 0 | Plant response rating, Kochia (kochia; [6]): 0 | Kochia plant response rating (0 to 100 scale, 0 is no effect, 100 is complete control) (kochia; Postemergence, 500 g ai/ha): 0 | Plant response rating, Kochia (kochia; [9]): 0
